Active and inactive are the calls of the source. How the calls were made is not given here.
System: GENE-TOX genotoxicity assays, various organisms and cells
Assay: GENE-TOX mutagenicity studies
Conditions: for call: Assay Type: In vivo carcinogenicity studies
Excerpt: GENE-TOX provides genetic toxicology (mutagenicity) test data from expert peer review of open scientific literature for more than 3,000 chemicals from the United States Environmental Protection Agency (EPA). GENE-TOX was established to select assay systems for evaluation, review data in the scientific literature, and recommend proper testing protocols and evaluation procedures for these systems.
GENE-TOX covers the years 1991 - 1998. It is no longer updated.
This is an archive assay for GENE-TOX mutagenicity studies.

[1] = Species/Cell Type: Drosophila melanogaster, Assay Type: Sex-linked recessive lethal gene mutation, Assay Code: SRL+, Evaluation Type: Evaluation A (Pre-1980)
[2] = Species/Cell Type: Escherichia coli polA (W3119 vs P3478), Assay Type: Rec-assay, DNA effects (bacterial DNA repair), Assay Code: RE1T, Evaluation Type: Evaluation A (Pre-1980)
[3] = Species/Cell Type: Nonhuman, Assay Code: CCG+, Evaluation Type: Evaluation A (Pre-1980)
[4] = Species/Cell Type: Salmonella typhimurium (one or more of the five standard strains: TA98, TA100, TA1535, TA1537, and TA1538), Assay Type: Histidine reverse gene mutation, Ames assay, Assay Code: SAL-, Evaluation Type: Evaluation A (Pre-1980)
[5] = Species/Cell Type: Bacillus subtilis (H17 vs M45), Assay Type: Rec-assay, spot test, DNA effects (bacterial DNA repair), Assay Code: REWT, Evaluation Type: Evaluation A (Pre-1980)
[6] = Species/Cell Type: Nonhuman, Assay Code: CCG-, Evaluation Type: Evaluation A (Pre-1980)
[7] = Species/Cell Type: Saccharomyces cerevisiae, Assay Type: Mitotic recombination or gene conversion, Assay Code: YEC-, Evaluation Type: Evaluation A (Pre-1980)

`CC(N)=S` was tested, and the mutagenic call [1] was “active; positive”, the mutagenic call (Species/Cell Type: Escherichia coli polA (W3110 vs P3478), Assay Type: Rec-assay, DNA effects (bacterial DNA repair), Assay Code: RE2-, Evaluation Type: Evaluation A (Pre-1980)) was “inactive; negative” and the mutagenic call [2] was “no conclusion”. The mutagenic call (Species/Cell Type: Fischer rat embryo (RLV/1706) cells, Assay Type: Cell transformation, viral enhanced, Assay Code: CTR+, Evaluation Type: Evaluation A (Pre-1980)) was “active; positive”, the mutagenic call (Species/Cell Type: Mammalian polychromatic erythrocytes, Assay Type: Micronucleus test, chromosome aberrations, Assay Code: MNT+, Evaluation Type: Evaluation B (Post-1980)) was “active; positive” and the mutagenic call (Species/Cell Type: Mouse embryo (AKR/ME) cells, Assay Type: Cell transformation, Assay Code: CTK+, Evaluation Type: Evaluation A (Pre-1980)) was “active; positive”. The mutagenic call (Species/Cell Type: Mouse, Sex: Male, Assay Type: Sperm morphology, Assay Code: SPI-, Evaluation Type: Evaluation A (Pre-1980)) was “inactive; negative”, the call [3] was “active; positive” and the mutagenic call (Species/Cell Type: Saccharomyces cerevisiae, Assay Type: Mitotic recombination or gene conversion, Assay Code: YEH+/-*, Activation: With metabolic activation, Evaluation Type: Evaluation A (Pre-1980)) was “inactive; positive without activation, negative with activation”. For the same compound, the mutagenic call [4] was “inactive; negative”, the mutagenic call (Species/Cell Type: Salmonella typhimurium, Assay Type: Forward and reverse gene mutation, host-mediated assay, Assay Code: HMA+, Evaluation Type: Evaluation A (Pre-1980)) was “active; positive” and the mutagenic call (Species/Cell Type: Syrian hamster embryo (SHE) cells, Assay Type: Cell transformation, clonal assay, Assay Code: CTC+, Evaluation Type: Evaluation A (Pre-1980)) was “active; positive”.

For `O=S(=O)(O)c1ccc(N=Nc2c(O)ccc3cc(S(=O)(=O)O)ccc23)cc1`, the mutagenic call [5] was “no conclusion”, the mutagenic call (Species/Cell Type: Bacillus subtilis (H17 vs M45T), Assay Type: Rec-assay, spot test, DNA effects (bacterial DNA repair), Assay Code: REXT, Evaluation Type: Evaluation A (Pre-1980)) was “no conclusion” and the call [6] was “inactive; negative”. The mutagenic call (Species/Cell Type: Nonhuman, Assay Type: Sister-chromatid exchange (SCE) in vitro, Assay Code: SC2T, Evaluation Type: Evaluation A (Pre-1980)) was “no conclusion”, the mutagenic call [7] was “inactive; negative” and the mutagenic call [4] was “inactive; negative”.

In the case of `CC(=O)[O-].CC(=O)[O-].CC(=O)[O-].[Sb+3]`, the mutagenic call (Species/Cell Type: Syrian hamster embryo (SA7/SHE) cells, Assay Type: Cell transformation, viral enhanced, Assay Code: CT7+, Evaluation Type: Evaluation A (Pre-1980)) was “active; positive”.

In the case of `NCCc1ccc(O)c(O)c1`, the mutagenic call (Species/Cell Type: Human lymphocytes, Assay Type: Sister-chromatid exchange (SCE) in vitro, Assay Code: SCL-, Evaluation Type: Evaluation B (Post-1980)) was “inactive; negative”, the mutagenic call (Species/Cell Type: Human, Assay Type: Sister-chromatid exchange (SCE) in vitro, Assay Code: SC1-, Evaluation Type: Evaluation B (Post-1980)) was “inactive; negative” and the mutagenic call (Species/Cell Type: Mammalian polychromatic erythrocytes, Assay Type: Micronucleus test, chromosome aberrations, Assay Code: MNT-, Evaluation Type: Evaluation B (Post-1980)) was “inactive; negative”.

In the case of `C1=Cc2c3c1cccc3cc1ccc3ccccc3c21`, the mutagenic call (Species/Cell Type: Nonhuman, Assay Type: Sister-chromatid exchange (SCE) in vivo, Assay Code: SC3+D, Dose Response: With dose response, Evaluation Type: Evaluation B (Post-1980)) was “active; positive”.

In the case of `CCOP(=S)(OCC)SC1OCCOC1SP(=S)(OCC)OCC` (centres undefined), the call [6] was “inactive; negative”.

With `CCCOP(=S)(OCCC)OP(=S)(OCCC)OCCC` the mutagenic call [5] was “no conclusion”, the mutagenic call (Species/Cell Type: Drosophila melanogaster, Assay Type: Sex-linked recessive lethal gene mutation, Assay Code: SRL-, Evaluation Type: Evaluation A (Pre-1980)) was “inactive; negative” and the mutagenic call (Species/Cell Type: Escherichia coli WP2 UVRA, Assay Type: Tryptophan reverse gene mutation, Assay Code: WPU-*, Activation: With metabolic activation, Evaluation Type: Evaluation A (Pre-1980)) was “inactive; negative”. For the same compound, the mutagenic call [2] was “no conclusion”, the mutagenic call (Species/Cell Type: Human diploid fibroblasts, Assay Type: Unscheduled DNA synthesis (UDS) in vitro, DNA effects, Assay Code: UDH-, Evaluation Type: Evaluation A (Pre-1980)) was “inactive; negative” and the mutagenic call (Species/Cell Type: Saccharomyces cerevisiae, Assay Type: Mitotic recombination or gene conversion, Assay Code: YEH-, Evaluation Type: Evaluation A (Pre-1980)) was “inactive; negative”. For the same compound, the mutagenic call [4] was “inactive; negative”.

For `O=c1[nH]c(=O)n([C@H]2C[C@H](O)[C@@H](COP(=O)(O)O)O2)cc1[N+](=O)[O-]`, the mutagenic call (Species/Cell Type: Human lymphocytes, Assay Type: Sister-chromatid exchange (SCE) in vitro, Assay Code: SCL+D, Dose Response: With dose response, Evaluation Type: Evaluation B (Post-1980)) was “active; positive” and the mutagenic call (Species/Cell Type: Human, Assay Type: Sister-chromatid exchange (SCE) in vitro, Assay Code: SC1+D, Dose Response: With dose response, Evaluation Type: Evaluation B (Post-1980)) was “active; positive”.

In the case of `O=C1C=C(N2CC2)C(=O)C=C1N1CC1`, the mutagenic call [1] was “active; positive”.

In the case of `CC(=O)[O-].CC(=O)[O-].[OH-].[OH-].[OH-].[OH-].[Pb+2].[Pb+2].[Pb+2]`, the call [3] was “active; positive” and the mutagenic call (Species/Cell Type: Rodents, Sex: Male, Assay Type: Dominant lethal test, Assay Code: DLTT, Evaluation Type: Evaluation A (Pre-1980)) was “no conclusion”.

In the case of `O=C1C2(Cl)C3(Cl)C4(Cl)C(Cl)(Cl)C5(Cl)C3(Cl)C1(Cl)C5(Cl)C24Cl` (centres undefined), the mutagenic call (Species/Cell Type: Human, Sex: Male, Assay Type: Sperm morphology, Assay Code: SPHT, Evaluation Type: Evaluation A (Pre-1980)) was “no conclusion” and the call [3] was “active; positive”.

In the case of `O=C1N(CCO)CCN1/N=C/c1ccc([N+](=O)[O-])o1`, the mutagenic call (Species/Cell Type: Salmonella typhimurium (one or more of the five standard strains: TA98, TA100, TA1535, TA1537, and TA1538), Assay Type: Histidine reverse gene mutation, Ames assay, Assay Code: SAL+, Evaluation Type: Evaluation A (Pre-1980)) was “active; positive”.

For `CO[C@@]12[C@H](COC(N)=O)C3=C(C(=O)C(C)=C(N)C3=O)N1C[C@H]1[C@@H]2N1C` (some centres undefined), the mutagenic call (Species/Cell Type: Nonhuman, Assay Type: Sister-chromatid exchange (SCE) in vitro, Assay Code: SC2+D, Dose Response: With dose response, Evaluation Type: Evaluation B (Post-1980)) was “active; positive”.

For `O=NN1CCCC(Cl)C1` (centres undefined), the mutagenic call [1] was “active; positive” and the mutagenic call (Species/Cell Type: Salmonella typhimurium (one or more of the five standard strains: TA98, TA100, TA1535, TA1537, and TA1538), Assay Type: Histidine reverse gene mutation, Ames assay, Assay Code: SAL+*, Activation: With metabolic activation, Evaluation Type: Evaluation A (Pre-1980)) was “active; positive”.

In the case of `O=[N+]([O-])c1ccc(Oc2ccc(C(F)(F)F)cc2[N+](=O)[O-])cc1`, the mutagenic call [7] was “inactive; negative”.

In the case of `CC(=O)OCCBr`, the mutagenic call (Species/Cell Type: Escherichia coli polA (W3119 vs P3478), Assay Type: Rec-assay, DNA effects (bacterial DNA repair), Assay Code: RE1+, Evaluation Type: Evaluation A (Pre-1980)) was “active; positive”.

Reference: PubChem BioAssay AID1259408 (Genetic Toxicology Data Bank (GENE-TOX), 2018)
